Data set [1] concerns HCV GT1a subgenomic replicon H77 RLucP. Description: Luciferase reporter replicon antiviral assay, GT1a. The settings on record: Hepatitis C virus. Type of data set: cell-based. As to the method: (§1) The anti-HCV activity of STG-175 was conducted using a panel of luciferase reporter replicon cell lines including GT1a, GT1b, GT2a, GT3a and GT4a as we described previously. The GT1a subgenomic renilla luciferase reporter replicon H77 RLucP (7) was supplied by Dr. Delaney. The GT1b subgenomic firefly luciferase reporter replicon pFK-I389/NS3-3’ [29] was supplied by Dr. Bartenschlager. The GT1B subgenomic NS3, NS5A and NS5B mutants were created via homologous recombination using the In-Fusion HD Cloning kit (Clontech) as we described previously. The GT2a genomic luciferase reporter replicon Luc-Neo-JFH-1 was generated as previously. The plasmid pFK-Luc-JFH1 was supplied from Drs. […] The CellTiter-Fluor™ Cell Viability Assay is a non-lytic fluorescence assay, which measures the number of live cells. […] Luciferase activity was determined using the Luciferase Assay System (Promega) in a Berthold luminometer. […] Viable cells continuously convert resazurin to resorufin, increasing the overall fluorescence and color of the media surrounding cells.
(§2) Fig 2 Anti-HCV activities of STG-175 among GTs. […] Luciferase activity was determined using the Luciferase Assay System in a Berthold luminometer. […] Data are expressed as mean of relative light units and calculated EC50s are presented. […]

Data set [2] has as its system HCV GT4a subgenomic replicon ED43/SG-Feo. Nature of the data set: Luciferase reporter replicon antiviral assay, GT4a. Type of data set: cell-based. As to conditions: Hepatitis C virus. As to the method: as §1, §2
Data set [3] in a line: alamarBlue cytotoxicity (CC50), GT2a replicon cell line. As to conditions: human. Here is the method:
as §1, §2
(In general: Alamar Blue is a resazurin reagent that responds to reducing activity.)

The next data set relates to GT2a replicon cell line. The description is as above. As to conditions: GT2a replicon cell line. Here is the method:
as §1, §2

Data set [4] relates to HCV (JFH-1) in Huh7.5.1 cells. Nature of the data set: Mono-infection, HCV core ELISA. The settings on record: both 0.5 and 5 μM, added together with virus, 12 days. Type of data set: cell-based, hepatitis C virus. From the text: For mono-infections: a) human hepatoma Huh7.5.1 cells were infected with HCV (JFH-1) and viral replication was quantified by HCV core ELISA (Ortho HCV antigen ELISA kit; Ortho Clinical Diagnostics, Waco Chemicals, Inc. or HCV Core ELISA, XpressBio); b) sodium-taurocholate co-transporting polypeptide (NTCP)-positive Huh7 cells were infected with hepatitis B virus (HBV) AD38 (produced from HepAD38 cells) and viral replication was quantified by HBV HBeAg ELISA; and c) human (peripheral blood monocytic cells (PBMCs) were infected with HIV-1 (JR-CSF) and viral replication was quantified by HIV-1 capsid/p24 ELISA. PBMCs were isolated as described previously. The Scripps Research Institute Normal Blood Donor Service (TSRI NBDS) provides TSRI investigators who have Human Subjects Committee-approved protocols with a source of normal blood for their research. Donors are assured of a controlled clinical setting for their blood to be drawn by licensed phlebotomists, and investigators are assured that the donors whose specimens they obtain through the service have been screened upon entry into the program and annually thereafter for a CBC, Hepatitis B and C and HIV-1. Hemoglobin determinations at every donation protect the donor from phlebotomy-induced anemia. […]

Read-outs that look alike come from different tables or passages of the source.

Here are results for one compound from PMC4841536, “Characterization of the Anti-HCV Activities of the New Cyclophilin Inhibitor STG-175” (PLoS ONE, 2016).

One may read the EC50 as the concentration giving half of the maximal effect. In general, CC50 refers to the concentration giving 50% cytotoxicity. With `CC=CCC(C)C(O)C1C(=O)NC(CC)C(=O)N(C)C(CSCCCCO)C(=O)N(C)C(CC(C)(C)O)C(=O)NC(C(C)C)C(=O)N(C)C(CC(C)C)C(=O)NC(C)C(=O)NC(C)C(=O)N(C)C(CC(C)C)C(=O)N(C)C(CC(C)C)C(=O)N(C)C(C(C)C)C(=O)N1C` (stereo not shown) [STG-175], the 50% effective concentration (EC50) in data set [1] (72 h post-drug addition, luciferase, read-out: EC50 GT1a) was determined as 13.5 nM; in data set [1] (Fig 2D table, unit inferred, read-out: EC50 GT1a (Fig 2D)), 13.5 nM; in data set [2] (72 h, read-out: EC50 GT4a), 15.2 nM; in data set [2] (read-out: EC50 GT4a (Fig 2D)), 15.2 nM. For the same compound, the CC50 at 72 h in data set [3] is more than 10 µM. The “cell viability toward increasing doses (alamarBlue)” value with GT2a replicon cell line was “lack of cellular cytotoxicity”. Further, the “HCV infection (HCV core ELISA)” value in data set [4] was “totally blocked”.
